Measured values: PMC5963591, “Bitopic Binding Mode of an M1 Muscarinic Acetylcholine Receptor Agonist Associated with Adverse Clinical Trial Outcomes” (Molecular Pharmacology, 2018)

Columns and labels:
[1] = biological target: T1, M2 mAChR (Homo sapiens, UniProt P08172); assay: ERK1/2 phosphorylation, CHO cells, M2; type: cell-based
T1 construct: expressed in transfected cells; host or cells: CHO

[2] = biological target: T2, human M1 mAChR (Homo sapiens, UniProt P11229); details: 20 nM [^3H]-GSK1034702
T2 sequence (P11229 1-460): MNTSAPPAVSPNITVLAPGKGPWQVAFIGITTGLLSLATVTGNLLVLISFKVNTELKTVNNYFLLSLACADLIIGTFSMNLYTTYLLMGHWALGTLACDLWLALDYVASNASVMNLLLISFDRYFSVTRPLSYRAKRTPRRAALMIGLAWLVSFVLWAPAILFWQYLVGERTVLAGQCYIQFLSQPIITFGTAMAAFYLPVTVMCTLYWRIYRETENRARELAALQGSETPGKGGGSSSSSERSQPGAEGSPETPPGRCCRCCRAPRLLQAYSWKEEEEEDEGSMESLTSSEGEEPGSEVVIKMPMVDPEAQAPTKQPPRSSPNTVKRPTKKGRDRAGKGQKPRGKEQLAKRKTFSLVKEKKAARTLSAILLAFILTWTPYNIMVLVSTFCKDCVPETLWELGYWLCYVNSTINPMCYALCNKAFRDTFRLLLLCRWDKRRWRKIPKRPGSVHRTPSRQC

[3] = biological target: T3, M4 mAChR (Homo sapiens, UniProt P08173); assay: ERK1/2 phosphorylation, CHO cells, M4; type: cell-based
T3 construct: expressed in transfected cells; host or cells: CHO
T3 sequence (P08173 whole entry): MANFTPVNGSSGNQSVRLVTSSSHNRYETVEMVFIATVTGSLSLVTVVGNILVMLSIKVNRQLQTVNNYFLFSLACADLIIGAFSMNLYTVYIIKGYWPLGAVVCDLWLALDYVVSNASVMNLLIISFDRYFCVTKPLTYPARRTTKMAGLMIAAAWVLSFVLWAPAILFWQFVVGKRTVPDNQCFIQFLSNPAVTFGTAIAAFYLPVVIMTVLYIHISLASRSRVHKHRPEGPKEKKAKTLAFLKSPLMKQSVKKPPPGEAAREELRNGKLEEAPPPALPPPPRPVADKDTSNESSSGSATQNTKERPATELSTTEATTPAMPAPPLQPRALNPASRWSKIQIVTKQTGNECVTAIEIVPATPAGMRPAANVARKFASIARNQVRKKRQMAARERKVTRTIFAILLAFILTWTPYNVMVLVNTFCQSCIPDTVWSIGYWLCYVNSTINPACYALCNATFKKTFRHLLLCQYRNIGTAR

[4] = biological target: T4, M3 mAChR (Homo sapiens, UniProt P20309); assay: ERK1/2 phosphorylation, CHO cells, M3; type: cell-based
T4 construct: expressed in transfected cells; host or cells: CHO
T4 sequence (P20309 whole entry): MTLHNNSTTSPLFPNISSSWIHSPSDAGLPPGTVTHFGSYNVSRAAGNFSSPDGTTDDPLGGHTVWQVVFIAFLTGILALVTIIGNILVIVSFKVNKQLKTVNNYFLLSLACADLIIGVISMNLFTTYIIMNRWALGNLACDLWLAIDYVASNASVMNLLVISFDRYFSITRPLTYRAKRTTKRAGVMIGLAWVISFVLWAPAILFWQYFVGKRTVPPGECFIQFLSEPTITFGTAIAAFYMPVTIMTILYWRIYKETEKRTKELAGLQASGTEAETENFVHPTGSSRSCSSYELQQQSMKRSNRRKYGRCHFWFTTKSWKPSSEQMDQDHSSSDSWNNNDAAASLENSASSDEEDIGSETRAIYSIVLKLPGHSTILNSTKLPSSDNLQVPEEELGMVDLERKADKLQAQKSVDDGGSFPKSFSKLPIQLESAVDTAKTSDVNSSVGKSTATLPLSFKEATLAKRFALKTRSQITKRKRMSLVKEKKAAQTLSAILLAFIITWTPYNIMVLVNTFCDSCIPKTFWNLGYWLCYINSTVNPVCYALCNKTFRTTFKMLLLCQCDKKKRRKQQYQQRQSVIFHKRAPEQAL

[5] = biological target: T2, human M1 mAChR; assay: IP-One (IP1) accumulation assay, CHO Flp-In human M1 cells; type: cell-based; parameters: expressed in transfected cells; host or cells: CHO Flp-In
Experimental: Stimulation of IP accumulation was determined using the Cisbio IP-One Gq assay kit per the manufacturer’s instructions. […] CHO Flp-In cells stably expressing the human M1 mAChR were grown to confluence in T75 cell culture flasks at 37°C. Cells were washed with warm phosphate-buffered saline and detached using phosphate-buffered saline with 0.1 M EDTA. Detached cells were centrifuged at 1000g and the cells were resuspended in stimulation buffer.
All IP-One stimulations were terminated by the addition of 3 μl/well IP1-d2 solution, followed by 3 μl/well anti–IP1-cryptate solution and incubation for 1 hour at room temperature with shaking.
Functional concentration-response curves were fitted according to a four-parameter logistic equation (to determine minimum and maximum asymptotes, LogEC50, and slope; GraphPad Prism 6). […] In the absence of antagonist ([B] = 0), this equation becomes the standard four-parameter logistic equation for fitting agonist concentration-response data.

[6] = biological target: T5, humanized M1 DREADD (Homo sapiens, UniProt P11229, A196G/Y106C); assay: Equilibrium [3H]-NMS binding, CHO Flp-In cell monolayers, M1 DREADD
T5 construct: expressed in transfected cells; host or cells: CHO Flp-In
T5 sequence (P11229 whole entry Y106C/A196G): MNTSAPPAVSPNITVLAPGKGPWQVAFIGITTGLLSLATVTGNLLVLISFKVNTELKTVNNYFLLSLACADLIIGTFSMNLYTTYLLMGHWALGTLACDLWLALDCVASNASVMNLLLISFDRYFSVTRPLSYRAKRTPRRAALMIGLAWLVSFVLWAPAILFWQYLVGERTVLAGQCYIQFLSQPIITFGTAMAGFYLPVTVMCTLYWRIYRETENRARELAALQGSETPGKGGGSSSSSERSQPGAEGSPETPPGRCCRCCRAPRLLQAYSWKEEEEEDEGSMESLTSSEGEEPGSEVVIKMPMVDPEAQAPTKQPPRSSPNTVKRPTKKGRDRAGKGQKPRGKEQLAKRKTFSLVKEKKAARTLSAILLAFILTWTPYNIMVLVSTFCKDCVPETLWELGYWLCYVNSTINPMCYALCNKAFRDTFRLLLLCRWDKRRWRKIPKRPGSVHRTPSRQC
Experimental: (§1) Prior to the experiment, cells were washed with 100 μl phosphate-buffered saline. […] Binding was terminated by rapid aspiration followed by two washes with 200 μl ice-cold 0.9% NaCl. Bound radioactivity was determined by liquid scintillation (Ultima Gold; PerkinElmer, Boston, MA) counting. Nonspecific binding was determined in the presence of 10 μM atropine.
(§2) Inhibition binding data were curve-fit using GraphPad Prism 6 to derive the potency (IC50) of the test compound. The equilibrium dissociation constant (KI) of the test compound was then calculated with the Cheng–Prusoff equation: KI = IC50/[1 + ([L]/KD)] using the KD value derived separately from saturation binding studies.

[7] = biological target: T6, M2 mAChR (isolated rat atria) (Rattus norvegicus, UniProt P10980); assay: Isolated rat atria, negative inotropic response; details: single experiment
T6 construct: from tissue; host or cells: left atria of adult Wistar rats
T6 sequence (P10980 1-466): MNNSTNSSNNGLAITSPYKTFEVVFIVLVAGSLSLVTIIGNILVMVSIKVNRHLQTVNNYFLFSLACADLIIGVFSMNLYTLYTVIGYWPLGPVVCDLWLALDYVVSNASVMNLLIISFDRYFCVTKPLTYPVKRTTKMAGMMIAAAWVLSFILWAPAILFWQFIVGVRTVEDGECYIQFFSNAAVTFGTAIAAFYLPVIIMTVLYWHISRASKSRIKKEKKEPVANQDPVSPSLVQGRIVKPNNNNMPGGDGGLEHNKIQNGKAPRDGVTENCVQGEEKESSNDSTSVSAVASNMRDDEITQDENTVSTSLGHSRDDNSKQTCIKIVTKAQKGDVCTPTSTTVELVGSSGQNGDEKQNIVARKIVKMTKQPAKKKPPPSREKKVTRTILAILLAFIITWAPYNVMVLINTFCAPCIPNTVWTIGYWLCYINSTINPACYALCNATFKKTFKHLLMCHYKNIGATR
Experimental: Adult Wistar rats were humanely euthanized and the left atria and the ileum were placed in an organ bath containing oxygenated Tyrode solution. Measurement of negative inotropic responses in atria or contraction of ileum was performed as described by [Lambrecht et al. (1989)]. For atrial responses, ligands were administered for 5 minutes at 32°C in McEwen’s buffer (pH 7.4) in a bath volume of 10 ml. […] For rat ileum experiments, ligands were administered for 5 minutes at 32°C in Krebs’ buffer (pH 7.4) in a bath volume of 10 ml. Contraction of ileum as a percentage of methacholine-induced contraction was measured, and antagonistic effects were measured by inhibition of methacholine-induced responses.

[8] = biological target: T2, human M1 mAChR; assay: [3H]-NMS binding interaction studies with BQCA; parameters: expressed in transfected cells; host or cells: CHO Flp-In; details: increasing concentrations of BQCA
Experimental: as §1

[9] = biological target: T7, human mAChR M1 (Homo sapiens, UniProt P11229); assay: [3H]-NMS competition binding, CHO membranes, M1
T7 construct: purchased PerkinElmer; host or cells: CHO
Experimental: For competition binding experiments at M1, M2, M3, M4, and M5 mAChRs, CHO membranes were purchased from PerkinElmer. All experiments were performed in assay buffer of the following composition: 20 mM HEPES, 100 mM NaCl, and 10 mM MgCl2, pH 7.5, and used 10 µg protein/well in a total assay volume of 1 ml using deep well blocks. […] All assay incubations were initiated by the addition of membrane suspensions and deep well blocks were shaken for 5 minutes to ensure complete mixing. Incubation was then carried out for 2 hours at 21°C. Binding reactions were terminated by rapid filtration through GF/A filters (PerkinElmer) presoaked with 0.5% (w/v) polyethylenimine for 1 hour. Filters were then washed three times with 1 ml ice-cold assay buffer.
as §2

T1 sequence (P08172 whole entry): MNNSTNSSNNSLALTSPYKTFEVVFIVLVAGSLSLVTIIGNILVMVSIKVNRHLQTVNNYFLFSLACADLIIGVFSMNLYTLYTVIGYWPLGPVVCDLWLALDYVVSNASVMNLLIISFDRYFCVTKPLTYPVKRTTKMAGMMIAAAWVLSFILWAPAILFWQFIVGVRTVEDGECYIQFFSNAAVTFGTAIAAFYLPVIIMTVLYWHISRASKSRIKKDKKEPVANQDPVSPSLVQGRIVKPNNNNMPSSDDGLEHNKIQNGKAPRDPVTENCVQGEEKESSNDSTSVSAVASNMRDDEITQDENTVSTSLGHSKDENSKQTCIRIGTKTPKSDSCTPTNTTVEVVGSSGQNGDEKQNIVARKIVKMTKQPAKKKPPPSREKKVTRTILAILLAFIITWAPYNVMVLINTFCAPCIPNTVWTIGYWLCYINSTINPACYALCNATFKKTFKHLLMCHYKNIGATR

- functional activity in ERK1/2 phosphorylation [1]: partial agonist activity
- displacement of specific [^3H]-GSK1034702 binding [2]: fully displaced
- functional activity in ERK1/2 phosphorylation [3]: partial agonist activity
- functional activity in ERK1/2 phosphorylation [4]: devoid of activity
- Emax ([5]; % of the maximal response elicited by ACh, read-out: IP1 accumulation, maximal response relative to ACh): ~90%
- IP1 Emax ([5]; CHO Flp-In human M1 cells): 90.1 ± 2.9
- EC50 ([5]; CHO Flp-In human M1 cells, read-out: IP1 pEC50 (converted)): 79.4 nM
- IP1 Accumulation ΔLog10(τ/KA) ([5]; normalized to reference ligand ACh): 0.3 ± 0.2
- IP1 Accumulation Log10(τ/KA) ([5]; transduction coefficient, wild-type M1 mAChR): 7.4 ± 0.2
- Ki [6]: 1000 nM
- IC50 ([7]; methacholine 1 μM, read-out: IC50, inhibition of methacholine-induced responses in rat atria): 8 µM
- potency, negative inotropic response in rat atria [7]: micromolar potency
- modulation by BQCA of the displacement of [^3H]-NMS [8]: not modulated
- Ki [9]: 1000 nM
Structure (SMILES): Cc1cc(F)c2[nH]c(=O)n(C3CCN(C4CCOCC4)CC3)c2c1 [GSK1034702, 7-fluoro-5-methyl-3-[1-(oxan-4-yl)piperidin-4-yl]-1H-benzimidazol-2-one]
- maximal negative inotropic response in rat atria ([7]; relative to methacholine): maximal response equivalent to that of methacholine
